From patent US20230295119A1, “SUBSTITUTED PYRIDINES FOR THE TREATMENT OF INFLAMMATORY DISEASES” (GOSSAMER BIO SERVICES, INC., priority 2020, published 2023)

The compounds below were run against human JAK2 (Homo sapiens (Human), UniProt O60674) (assay: JAK2 TR-FRET kinase assay). Details: JAK2 0.025 nM.
Format: biochemical

Chain of human JAK2 (O60674 whole entry): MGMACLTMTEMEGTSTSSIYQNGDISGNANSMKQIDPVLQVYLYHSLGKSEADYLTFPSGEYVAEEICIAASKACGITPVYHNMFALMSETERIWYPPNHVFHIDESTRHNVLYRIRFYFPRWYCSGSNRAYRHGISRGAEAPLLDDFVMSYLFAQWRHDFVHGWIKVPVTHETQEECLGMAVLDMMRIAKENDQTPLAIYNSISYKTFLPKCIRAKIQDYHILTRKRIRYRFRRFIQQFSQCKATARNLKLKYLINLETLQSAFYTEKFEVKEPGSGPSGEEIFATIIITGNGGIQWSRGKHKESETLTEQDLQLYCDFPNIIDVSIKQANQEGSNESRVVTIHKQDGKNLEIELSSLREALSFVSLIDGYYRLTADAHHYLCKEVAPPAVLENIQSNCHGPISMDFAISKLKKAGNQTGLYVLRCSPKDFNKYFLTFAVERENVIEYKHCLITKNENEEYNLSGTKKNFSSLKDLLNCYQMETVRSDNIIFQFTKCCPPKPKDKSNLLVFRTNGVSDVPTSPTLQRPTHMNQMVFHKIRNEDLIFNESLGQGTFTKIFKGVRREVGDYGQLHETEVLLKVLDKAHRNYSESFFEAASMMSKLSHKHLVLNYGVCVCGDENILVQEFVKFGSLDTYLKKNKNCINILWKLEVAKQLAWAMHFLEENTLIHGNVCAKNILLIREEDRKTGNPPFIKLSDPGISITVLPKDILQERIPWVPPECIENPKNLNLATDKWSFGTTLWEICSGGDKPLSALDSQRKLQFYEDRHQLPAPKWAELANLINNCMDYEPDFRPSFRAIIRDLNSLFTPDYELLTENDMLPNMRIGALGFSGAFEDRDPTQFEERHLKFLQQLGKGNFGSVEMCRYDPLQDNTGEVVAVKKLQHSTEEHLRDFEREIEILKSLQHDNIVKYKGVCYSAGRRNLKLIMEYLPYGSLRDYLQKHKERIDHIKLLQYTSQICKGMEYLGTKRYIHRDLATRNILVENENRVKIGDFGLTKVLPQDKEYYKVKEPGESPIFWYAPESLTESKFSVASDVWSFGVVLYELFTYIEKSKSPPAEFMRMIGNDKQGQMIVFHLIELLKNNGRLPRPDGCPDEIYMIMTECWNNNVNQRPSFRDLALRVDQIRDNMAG

| IC50 | SMILES |
| --- | --- |
| ≥ 500 nM | CCC(=O)c1cnc(Nc2ccc(CN3C[C@@H](C)O[C@@H](C)C3)cn2)cc1Nc1cccc(-c2ncn(C)n2)c1OC [Compound 9UU] |
| ≥ 500 nM | CCC(=O)c1cnc(Nc2ccc(CN(C)CC)cn2)cc1Nc1cccc(-c2ncn(C)n2)c1OC [Compound 9U] |
| ≥ 500 nM | CCC(=O)c1cnc(Nc2cnc(C(N(C)C)C(F)(F)F)cn2)cc1Nc1cccc(-c2ncn(C)n2)c1OC (centres unmarked) [Compound 9VVV] |
| 50 to 500 nM | CCC(=O)c1cnc(Nc2ccc(CN3CCS(=O)(=O)CC3)cn2)cc1Nc1cccc(-c2ncn(C)n2)c1OC [Compound 9VV] |
| ≥ 500 nM | CCC(=O)c1cnc(Nc2ccc(C(N(C)C)C(F)(F)F)cn2)cc1Nc1cccc(-c2ncn(C)n2)c1OC (centres unmarked) [Compound 9V] |
| ≥ 500 nM | CCC(=O)c1cnc(Nc2cnc(CN(C)CC(F)F)cn2)cc1Nc1cccc(-c2ncn(C)n2)c1OC [Compound 9WWW] |
| 50 to 500 nM | CCC(=O)c1cnc(Nc2ccc(CN3CCS(=N)(=O)CC3)cn2)cc1Nc1cccc(-c2ncn(C)n2)c1OC [Compound 9WW] |
| ≥ 500 nM | [2H]C([2H])([2H])N(Cc1ccc(Nc2cc(Nc3cccc(-c4ncn(C)n4)c3OC)c(C(=O)CC)cn2)nc1)C([2H])([2H])[2H] [Compound 9W] |
| ≥ 500 nM | CCC(=O)c1cnc(Nc2cnc(CN(C)CC(F)(F)F)cn2)cc1Nc1cccc(-c2ncn(C)n2)c1OC [Compound 9XXX] |
| ≥ 500 nM | CCC(=O)c1cnc(Nc2ccc(CN(C)CC(F)(F)F)cn2)cc1Nc1cccc(-c2ncn(C)n2)c1OC [Compound 9X] |

| SMILES | IC50 |
| --- | --- |
| CCC(=O)c1cnc(Nc2ccc(CN3C4COCC3C4)cn2)cc1Nc1cccc(-c2ncn(C)n2)c1OC [Compound 9XX] | 50 to 500 nM |

Each compound was assayed against human JAK1 (Homo sapiens (Human), UniProt P23458) (assay: JAK1 TR-FRET kinase assay). Details: TR-FRET, JAK1 2.5 nM.
Format: biochemical

Chain of human JAK1 (P23458 whole entry): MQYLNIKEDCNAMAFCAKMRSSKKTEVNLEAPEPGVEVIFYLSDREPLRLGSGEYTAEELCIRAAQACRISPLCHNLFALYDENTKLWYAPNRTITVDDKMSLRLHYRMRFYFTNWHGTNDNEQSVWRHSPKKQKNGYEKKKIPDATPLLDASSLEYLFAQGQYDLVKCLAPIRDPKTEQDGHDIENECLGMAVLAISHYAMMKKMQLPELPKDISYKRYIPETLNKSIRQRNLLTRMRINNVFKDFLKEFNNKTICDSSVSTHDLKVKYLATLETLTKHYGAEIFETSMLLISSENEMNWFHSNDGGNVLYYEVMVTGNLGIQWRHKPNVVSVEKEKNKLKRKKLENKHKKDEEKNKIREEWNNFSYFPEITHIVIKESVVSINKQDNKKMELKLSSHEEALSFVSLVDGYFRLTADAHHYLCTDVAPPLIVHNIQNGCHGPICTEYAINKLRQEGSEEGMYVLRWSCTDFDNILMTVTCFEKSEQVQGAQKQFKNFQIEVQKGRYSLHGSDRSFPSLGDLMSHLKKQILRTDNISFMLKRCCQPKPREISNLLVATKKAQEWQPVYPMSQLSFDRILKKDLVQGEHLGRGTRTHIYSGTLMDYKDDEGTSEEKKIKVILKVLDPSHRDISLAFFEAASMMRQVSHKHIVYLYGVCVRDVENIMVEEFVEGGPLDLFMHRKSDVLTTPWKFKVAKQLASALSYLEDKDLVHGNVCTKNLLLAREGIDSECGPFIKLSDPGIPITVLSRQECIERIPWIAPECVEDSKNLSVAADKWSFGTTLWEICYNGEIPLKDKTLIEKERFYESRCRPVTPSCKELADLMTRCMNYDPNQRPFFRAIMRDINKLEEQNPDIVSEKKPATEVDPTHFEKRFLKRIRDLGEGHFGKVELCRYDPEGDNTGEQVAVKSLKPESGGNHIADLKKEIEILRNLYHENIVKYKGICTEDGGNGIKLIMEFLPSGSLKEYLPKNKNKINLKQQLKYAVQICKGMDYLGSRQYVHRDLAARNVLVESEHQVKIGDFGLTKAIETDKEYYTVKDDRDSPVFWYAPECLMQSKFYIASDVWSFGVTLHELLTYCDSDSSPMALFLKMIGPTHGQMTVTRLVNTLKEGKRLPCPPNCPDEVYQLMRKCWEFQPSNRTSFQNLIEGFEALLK

| IC50 | SMILES |
| --- | --- |
| ≥ 500 nM | CCC(=O)c1cnc(Nc2ccc(CN3C[C@@H](C)O[C@@H](C)C3)cn2)cc1Nc1cccc(-c2ncn(C)n2)c1OC [Compound 9UU] |
| ≥ 500 nM | CCC(=O)c1cnc(Nc2ccc(CN(C)CC)cn2)cc1Nc1cccc(-c2ncn(C)n2)c1OC [Compound 9U] |
| ≥ 500 nM | CCC(=O)c1cnc(Nc2cnc(C(N(C)C)C(F)(F)F)cn2)cc1Nc1cccc(-c2ncn(C)n2)c1OC (centres unmarked) [Compound 9VVV] |
| ≥ 500 nM | CCC(=O)c1cnc(Nc2ccc(CN3CCS(=O)(=O)CC3)cn2)cc1Nc1cccc(-c2ncn(C)n2)c1OC [Compound 9VV] |
| ≥ 500 nM | CCC(=O)c1cnc(Nc2ccc(C(N(C)C)C(F)(F)F)cn2)cc1Nc1cccc(-c2ncn(C)n2)c1OC (centres unmarked) [Compound 9V] |
| ≥ 500 nM | CCC(=O)c1cnc(Nc2cnc(CN(C)CC(F)F)cn2)cc1Nc1cccc(-c2ncn(C)n2)c1OC [Compound 9WWW] |
| ≥ 500 nM | CCC(=O)c1cnc(Nc2ccc(CN3CCS(=N)(=O)CC3)cn2)cc1Nc1cccc(-c2ncn(C)n2)c1OC [Compound 9WW] |
| ≥ 500 nM | [2H]C([2H])([2H])N(Cc1ccc(Nc2cc(Nc3cccc(-c4ncn(C)n4)c3OC)c(C(=O)CC)cn2)nc1)C([2H])([2H])[2H] [Compound 9W] |
| ≥ 500 nM | CCC(=O)c1cnc(Nc2cnc(CN(C)CC(F)(F)F)cn2)cc1Nc1cccc(-c2ncn(C)n2)c1OC [Compound 9XXX] |
| ≥ 500 nM | CCC(=O)c1cnc(Nc2ccc(CN(C)CC(F)(F)F)cn2)cc1Nc1cccc(-c2ncn(C)n2)c1OC [Compound 9X] |

| SMILES | IC50 |
| --- | --- |
| CCC(=O)c1cnc(Nc2ccc(CN3C4COCC3C4)cn2)cc1Nc1cccc(-c2ncn(C)n2)c1OC [Compound 9XX] | ≥ 500 nM |

These compounds were tested against human JAK3 (Homo sapiens (Human), UniProt P52333) (assay: JAK3 TR-FRET kinase assay). Details: JAK3 0.0125 nM.
Format: biochemical

Chain of human JAK3 (P52333 whole entry): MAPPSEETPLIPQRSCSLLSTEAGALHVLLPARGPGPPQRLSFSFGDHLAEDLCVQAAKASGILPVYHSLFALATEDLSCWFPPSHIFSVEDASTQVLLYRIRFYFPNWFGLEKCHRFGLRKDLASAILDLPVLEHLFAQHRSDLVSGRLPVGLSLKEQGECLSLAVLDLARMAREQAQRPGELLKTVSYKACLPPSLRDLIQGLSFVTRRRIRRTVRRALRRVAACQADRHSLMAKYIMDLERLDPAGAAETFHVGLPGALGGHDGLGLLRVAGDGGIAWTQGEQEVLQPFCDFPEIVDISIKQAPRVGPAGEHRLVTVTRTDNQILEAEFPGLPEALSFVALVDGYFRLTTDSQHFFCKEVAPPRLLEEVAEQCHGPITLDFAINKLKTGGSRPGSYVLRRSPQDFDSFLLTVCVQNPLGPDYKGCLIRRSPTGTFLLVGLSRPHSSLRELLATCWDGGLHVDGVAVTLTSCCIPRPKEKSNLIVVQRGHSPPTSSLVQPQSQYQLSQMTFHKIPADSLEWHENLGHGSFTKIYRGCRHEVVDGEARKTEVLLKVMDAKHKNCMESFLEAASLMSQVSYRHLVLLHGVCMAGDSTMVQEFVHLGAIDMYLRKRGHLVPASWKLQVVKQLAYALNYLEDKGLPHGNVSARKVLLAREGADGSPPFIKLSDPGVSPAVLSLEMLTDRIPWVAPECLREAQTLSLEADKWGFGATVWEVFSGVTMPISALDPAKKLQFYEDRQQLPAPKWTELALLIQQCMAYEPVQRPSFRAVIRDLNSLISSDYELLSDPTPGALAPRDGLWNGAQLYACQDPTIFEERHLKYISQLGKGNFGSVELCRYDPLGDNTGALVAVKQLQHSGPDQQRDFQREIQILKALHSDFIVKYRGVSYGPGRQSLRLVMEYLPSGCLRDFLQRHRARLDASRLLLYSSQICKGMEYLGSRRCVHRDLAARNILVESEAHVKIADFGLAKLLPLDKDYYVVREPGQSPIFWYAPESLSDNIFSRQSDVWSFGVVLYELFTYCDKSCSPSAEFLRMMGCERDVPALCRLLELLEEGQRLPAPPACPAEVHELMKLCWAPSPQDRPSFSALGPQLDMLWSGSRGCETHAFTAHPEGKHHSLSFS

| IC50 | SMILES |
| --- | --- |
| ≥ 500 nM | CCC(=O)c1cnc(Nc2ccc(CN3C[C@@H](C)O[C@@H](C)C3)cn2)cc1Nc1cccc(-c2ncn(C)n2)c1OC [Compound 9UU] |
| ≥ 500 nM | CCC(=O)c1cnc(Nc2ccc(CN(C)CC)cn2)cc1Nc1cccc(-c2ncn(C)n2)c1OC [Compound 9U] |
| ≥ 500 nM | CCC(=O)c1cnc(Nc2cnc(C(N(C)C)C(F)(F)F)cn2)cc1Nc1cccc(-c2ncn(C)n2)c1OC (centres unmarked) [Compound 9VVV] |
| 50 to 500 nM | CCC(=O)c1cnc(Nc2ccc(CN3CCS(=O)(=O)CC3)cn2)cc1Nc1cccc(-c2ncn(C)n2)c1OC [Compound 9VV] |
| ≥ 500 nM | CCC(=O)c1cnc(Nc2ccc(C(N(C)C)C(F)(F)F)cn2)cc1Nc1cccc(-c2ncn(C)n2)c1OC (centres unmarked) [Compound 9V] |
| ≥ 500 nM | CCC(=O)c1cnc(Nc2cnc(CN(C)CC(F)F)cn2)cc1Nc1cccc(-c2ncn(C)n2)c1OC [Compound 9WWW] |
| 50 to 500 nM | CCC(=O)c1cnc(Nc2ccc(CN3CCS(=N)(=O)CC3)cn2)cc1Nc1cccc(-c2ncn(C)n2)c1OC [Compound 9WW] |
| ≥ 500 nM | [2H]C([2H])([2H])N(Cc1ccc(Nc2cc(Nc3cccc(-c4ncn(C)n4)c3OC)c(C(=O)CC)cn2)nc1)C([2H])([2H])[2H] [Compound 9W] |
| ≥ 500 nM | CCC(=O)c1cnc(Nc2cnc(CN(C)CC(F)(F)F)cn2)cc1Nc1cccc(-c2ncn(C)n2)c1OC [Compound 9XXX] |
| ≥ 500 nM | CCC(=O)c1cnc(Nc2ccc(CN(C)CC(F)(F)F)cn2)cc1Nc1cccc(-c2ncn(C)n2)c1OC [Compound 9X] |

| SMILES | IC50 |
| --- | --- |
| CCC(=O)c1cnc(Nc2ccc(CN3C4COCC3C4)cn2)cc1Nc1cccc(-c2ncn(C)n2)c1OC [Compound 9XX] | 50 to 500 nM |

Each compound was assayed against TYK2 JH2 domain (Homo sapiens (Human), UniProt P29597) (assay: TYK2 JH2 NanoBRET assay). Details: Table 20, read-out: TYK2 IC50.
Format: binding
Procedure, shortened: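 Tracer displacement measured by BRET ratio (acceptor over donor) in live HEK293T cells transfected with a NanoLuc-tagged TYK2 JH2 construct; cells co-exposed to test compound and 0.5 µM final K10 tracer for 2 h before substrate/extracellular inhibitor addition.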

Chain of TYK2 JH2 domain (P29597 589-875): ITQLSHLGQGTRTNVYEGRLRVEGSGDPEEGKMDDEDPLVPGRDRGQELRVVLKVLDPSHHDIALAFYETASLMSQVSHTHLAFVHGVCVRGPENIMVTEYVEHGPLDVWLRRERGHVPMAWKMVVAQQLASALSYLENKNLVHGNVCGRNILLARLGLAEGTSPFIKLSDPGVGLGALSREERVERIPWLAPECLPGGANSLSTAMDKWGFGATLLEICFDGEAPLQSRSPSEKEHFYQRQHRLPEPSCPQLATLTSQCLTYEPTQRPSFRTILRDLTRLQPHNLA

| IC50 | SMILES |
| --- | --- |
| < 5 nM | CCC(=O)c1cnc(Nc2ccc(CN3C[C@@H](C)O[C@@H](C)C3)cn2)cc1Nc1cccc(-c2ncn(C)n2)c1OC [Compound 9UU] |
| < 5 nM | CCC(=O)c1cnc(Nc2ccc(CN(C)CC)cn2)cc1Nc1cccc(-c2ncn(C)n2)c1OC [Compound 9U] |
| 5 to 50 nM | CCC(=O)c1cnc(Nc2cnc(C(N(C)C)C(F)(F)F)cn2)cc1Nc1cccc(-c2ncn(C)n2)c1OC (centres unmarked) [Compound 9VVV] |
| < 5 nM | CCC(=O)c1cnc(Nc2ccc(CN3CCS(=O)(=O)CC3)cn2)cc1Nc1cccc(-c2ncn(C)n2)c1OC [Compound 9VV] |
| < 5 nM | CCC(=O)c1cnc(Nc2ccc(C(N(C)C)C(F)(F)F)cn2)cc1Nc1cccc(-c2ncn(C)n2)c1OC (centres unmarked) [Compound 9V] |
| 5 to 50 nM | CCC(=O)c1cnc(Nc2cnc(CN(C)CC(F)F)cn2)cc1Nc1cccc(-c2ncn(C)n2)c1OC [Compound 9WWW] |
| 5 to 50 nM | CCC(=O)c1cnc(Nc2ccc(CN3CCS(=N)(=O)CC3)cn2)cc1Nc1cccc(-c2ncn(C)n2)c1OC [Compound 9WW] |
| < 5 nM | [2H]C([2H])([2H])N(Cc1ccc(Nc2cc(Nc3cccc(-c4ncn(C)n4)c3OC)c(C(=O)CC)cn2)nc1)C([2H])([2H])[2H] [Compound 9W] |
| 5 to 50 nM | CCC(=O)c1cnc(Nc2cnc(CN(C)CC(F)(F)F)cn2)cc1Nc1cccc(-c2ncn(C)n2)c1OC [Compound 9XXX] |
| 5 to 50 nM | CCC(=O)c1cnc(Nc2ccc(CN(C)CC(F)(F)F)cn2)cc1Nc1cccc(-c2ncn(C)n2)c1OC [Compound 9X] |

| SMILES | IC50 |
| --- | --- |
| CCC(=O)c1cnc(Nc2ccc(CN3C4COCC3C4)cn2)cc1Nc1cccc(-c2ncn(C)n2)c1OC [Compound 9XX] | < 5 nM |
